Where a name gives a salt, the structure may show the parent alone.

The target of the first assay is T1, Porcine DPP-IV (Sus scrofa, UniProt P22411).
T1 construct: purchased Sigma-Aldrich Germany
T1 sequence (P22411 whole entry): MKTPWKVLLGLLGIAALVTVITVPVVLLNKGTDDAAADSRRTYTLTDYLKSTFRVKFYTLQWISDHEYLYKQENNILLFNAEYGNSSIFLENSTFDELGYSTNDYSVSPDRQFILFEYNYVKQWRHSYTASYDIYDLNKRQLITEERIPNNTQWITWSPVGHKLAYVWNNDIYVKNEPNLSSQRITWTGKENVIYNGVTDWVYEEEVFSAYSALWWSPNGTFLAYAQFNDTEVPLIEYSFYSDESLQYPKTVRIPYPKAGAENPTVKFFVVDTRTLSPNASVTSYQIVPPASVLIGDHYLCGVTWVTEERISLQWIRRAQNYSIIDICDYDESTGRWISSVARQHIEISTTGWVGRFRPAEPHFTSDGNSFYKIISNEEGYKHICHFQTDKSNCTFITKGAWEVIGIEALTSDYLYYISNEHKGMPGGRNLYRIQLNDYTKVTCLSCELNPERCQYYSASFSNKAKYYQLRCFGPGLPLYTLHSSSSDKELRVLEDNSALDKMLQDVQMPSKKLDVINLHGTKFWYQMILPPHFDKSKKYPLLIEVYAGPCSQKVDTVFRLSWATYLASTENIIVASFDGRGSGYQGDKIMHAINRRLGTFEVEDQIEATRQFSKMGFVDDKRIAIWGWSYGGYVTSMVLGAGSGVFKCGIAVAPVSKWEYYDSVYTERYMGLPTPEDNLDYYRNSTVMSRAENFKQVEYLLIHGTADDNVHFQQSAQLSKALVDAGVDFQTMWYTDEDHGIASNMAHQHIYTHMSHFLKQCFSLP
The assay is described as follows: Assay of DPP-IV enzyme inhibitory activity (spectrophotometric, Gly-Pro-pNA cleavage). It is filed as biochemical. The conditions noted are these: Porcine DPP-IV, Gly-Pro-pNA substrate, 30° C.; mean ± SD of three experiments except compound Nos. 133 & 139; read-out: IC50 (μM) Mean ± SD, inhibitory activity on DPP-IV enzyme activity. The protocol:
Assay of DPP-IV Enzyme Inhibitory Activity.
The assay method is a modified method (as described by Welch et al, 1998) based on spectrophotometric determination of the product formed by penultimate proline cleaving activity of the enzyme.
Assay protocol involves incubation of the enzyme dipeptidyl peptidase IV with the test substance at 30° C. for 30 min followed by addition of this reaction mixture to the substrate Gly-Pro-pNA that was equilibrated at 30° C. for 2 min. The enzyme cleaves the substrate at penultimate proline and releases p-nitroanilide, the optical density of which is measured at 385 nm. The formation of p-nitroanilide will be reduced in the presence of inhibitor. […] The activity of molecule is expressed in terms of % inhibition. At least three different concentrations were tried out for each of the test substances. The percentage inhibitions for each of the concentrations were plotted and an IC50 of the test compound was worked out. The enzyme inhibitory activity of different test compounds were compared based on the IC50 values.
The percentage inhibition % I, is calculated using the formula:
% I=[(1−vi/v0)]*100 where vi and v0 are the Vmax values with and without the test substance, respectively.
Substrate solution: 0.5 mM in 45 mM phosphate buffer
Substrate used: Gly-Pro-p-nitroanilide (Source: Sigma-Aldrich Co. Germany)
3.288 mg substrate in 1 ml 45 mM phosphate buffer was prepared as stock solution. 0.25 ml of this stock solution was diluted to 5 ml to get 0.5 mM substrate solution (90 μl to be added in each well). The stock solution of the substrate was used within three days of preparation.
Enzyme solution: Porcine DPP-IV (Sigma-Aldrich Germany) was used throughout the study. 0.4 mU in 80 μl of Tris. HCl buffer was prepared. Fresh solutions were prepared everyday for the assays.
Various concentrations of inhibitor were used: 0.391 μM, 0.781 μM, and 3.125 μM. Solutions of inhibitor were prepared and used on the same day.
280 μl of enzyme solution (0.4-mU/80 μl in Tris HCl buffer) was added to the eppendorf containing 70 μl solution of inhibitor or vehicle and mixed. This reaction mixture was incubated for 30 min at 30° C. The 96 well plate containing substrate solution was thermally equilibrated in the spectrophotometer for 2 min at 30° C. Later 100 μl of the enzyme-inhibitor pre-incubation solution was added to respective wells in a 96 well plate. Each concentration of the inhibitor was tested in triplicates.
The rate of change in UV absorbance (in presence of various concentrations of the inhibitor) was measured at 385 nm, with respect to wells containing only 0.5 mM substrate in 45 mM phosphate buffer as blank at every 10 min for 2 hours after adding enzyme-inhibitor mixture to wells containing substrate solution.
Regarding `CCN(N)CC(=O)N1CCCC1C#N` (stereo not shown) [Compound No. 14, 1-[1-Oxo-2-((1-ethyl)hydrazino)]ethyl-2-cyano pyrrolidine trifluoroacetate], the IC50 worked out at 93.7 ± 5.54 µM. On the same count and under the same terms, the figure for `CCNN(CC(=O)N1CSCC1C#N)C(C)C` (stereo not shown) [Compound No. 80, 3-[1-Oxo-2-(1-isopropyl-2-ethyl)-hydrazino]-ethyl-4-cyanothiazolidine trifluoroacetate] is 2.27 ± 0.19 µM; for `N#CC1CCCN1C(=O)CNNC1CCCCC1` (stereo not shown) [Compound No. 34, 1-[1-Oxo-2-(2-cyclohexyl) hydrazino] ethyl-2-cyanopyrrolidine trifluoroacetate] it is 30.3 ± 5.5 µM; for `CC1CCC(N(N)CC(=O)N2CS(=O)(=O)CC2C#N)CC1` (stereo not shown) [Compound No. 67, 1,1-Dioxo-3-[1-oxo-2-(1-(4-methylcyclohexyl)hydrazino)]ethyl-4-cyanothiazolidine trifluoroacetate] it is 72.5 ± 7.05 µM. Take `N#CC1CSCN1C(=O)CN(N)C12CCC(CC1)C2` (stereo not shown) [Compound No. 63, 3-[1-Oxo-2-(1-(1-norcamphoranyl) hydrazino)]ethyl-4-cyanothiazolidine trifluoroacetate]: the IC50 turned out to be 0.73 ± 0.02 µM. Turning to `Cc1cnc(C(=O)NC2CCC(N(N)CC(=O)N3CSCC3C#N)CC2)cn1` (stereo not shown) [compound 139, 3-[1-oxo-2-(1-(1-(5-methylpyrazine-2-ylcarbonyl)amino-4-cyclohexyl)) hydrazino]ethyl-4-cyanothiazolidine, tris-trifluoroacetate], the IC50 was 0.485 ± 0.01 µM. Still for that read-out and setting: under `CC1CCC(NN(C)CC(=O)N2CSCC2C#N)CC1` (stereo not shown) [Compound No. 68, 3-[1-Oxo-2-(1-methyl-2-(4-methylcyclohexyl) hydrazino)]ethyl-4-cyanothiazolidine] stands 45.3 ± 3.03 µM; under `N#CC1CCCN1C(=O)CN(N)C1CCN(S(=O)(=O)c2ccc(Cl)cc2)CC1` (stereo not shown) [Compound No. 73, [1-Oxo-2-(1-(1-(4-chlorophenylsulphonyl)-piperidin-4-yl)-hydrazino)]ethyl-2-cyanopyrrolidine trifluoroacetate], 48.9 ± 1.81 µM; under `N#CC1CCCN1C(=O)CN(N)C1CCCc2ccccc21` (stereo not shown) [Compound No. 48, 1-[1-Oxo-2-(1-tetralinyl)hydrazino]ethyl-2-cyanopyrrolidine trifluoroacetate], 45.2 ± 1.21 µM. The same measure, in the same setting: under `CC(C)NN(CC(=O)N1CCCC1C#N)C1CCCCC1` (stereo not shown) [Compound No. 38, 1-[1-Oxo-2-(1-cyclohexyl-2-isopropyl)hydrazino]ethyl-2-cyano pyrrolidine] stands 96.9 ± 23 µM; under `N#CC1CCCN1C(=O)CN(N)c1ccccn1` (stereo not shown) [Compound No. 27, 1-[1-Oxo-2-(1-(2-Pyridyl)-hydrazino)]ethyl-2-cyano pyrrolidine bis-trifluoroacetate], 43 ± 2.76 µM; under `N#CC1CSCN1C(=O)CN(N)C1CCN(CC(=O)N2CCOCC2)CC1` (stereo not shown) [Compound No. 107, 3-[1-oxo-2-[1-(1-(−2-oxo-2(morpholin-4-yl)ethyl)piperidin-4-yl)]hydrazino]ethyl-4-cyanothiazolidine bis-trifluoroacetate], 0.525 ± 0.098 µM. On to `N#CC1CSCN1C(=O)CN(N)C1CCN(Cc2ccccc2)CC1` (stereo not shown) [Compound No. 81, 3-[1-Oxo-2-[1-(1-phenylmethyl-piperidin-4-yl)]-hydrazino]-ethyl-4-cyanothiazolidine trifluoroacetate], for which the IC50 came to 1.63 ± 0.15 µM. Still for that read-out and setting: the figure for `N#CC1CSCN1C(=O)CN(N)C1CCC(NCC(=O)Nc2ccc(Cl)cn2)CC1` (stereo not shown) [Compound No. 111, 3-[1-oxo-2-[1-(4-(2-oxo-2-(5-chloropyridin-2-yl)aminoethyl)aminocyclohex-1-yl)]hydrazino]ethyl-4-cyanothiazolidine tris-trifluoroacetate] is 0.563 ± 0.077 µM. The same measure, in the same setting: the figure for `N#CC1CSCN1C(=O)CN(N)C1CCN(CCOc2ccccc2)CC1` (stereo not shown) [compound 123] is 0.676 ± 0.07 µM.

On to `CC(C)NN(CC(=O)N1CSCC1C#N)C1CCC(NS(C)(=O)=O)CC1` (stereo not shown) [Compound No. 84, 3-[1-Oxo-2-(1-(1-methanesulphonylamino-4-cyclohexyl)-2-isopropyl) hydrazino]ethyl-4-cyanothiazolidine trifluoroacetate], for which the IC50 came to 5.78 ± 0.18 µM. The same measure, in the same setting: the figure for `CC(C)(C)OC(=O)NNCC(=O)N1COCC1C#N` (stereo not shown) [compound 147, 3-[-oxo-2-(2-ter-butyloxycarbonyl) hydrazino]ethyl-4-cyanooxazolidine] is 150 ± 43 µM. For `N#CC1CSCN1C(=O)CN(N)C1CCN(CC(=O)Nc2nccs2)CC1` (stereo not shown) [compound 134, 3-[1-oxo-2-(1-(1-(2-oxo-2-(thiazole-2-yl)-aminoethyl)piperidin-4-yl))hydrazino]ethyl-4-cyanothiazolidine, tris-trifluoroacetate], the IC50 was 0.205 ± 0.011 µM. In the case of `N#CC1CSCN1C(=O)CN(N)Cc1ccccc1` (stereo not shown) [Compound No. 16, 3-[1-Oxo-2-((1-phenylmethyl)hydrazino)]ethyl-4-cyano thiazolidine trifluoroacetate], the IC50 is 9.29 ± 0.64 µM.

As to `N#CC1CSCN1C(=O)CN1CCCCN1` (stereo not shown) [Compound No. 83], the half-inhibitory concentration (IC50) amounted to 82 ± 18 µM. Same read-out and setting: under `N#CC1CSCN1C(=O)CN(N)c1ccccc1` (stereo not shown) [Compound No. 9, 3-[1-Oxo-2-((1-phenyl)hydrazino)]ethyl-4-cyano Thiazolidine Trifluoroacetate] stands 6.18 ± 0.88 µM. Take `CC1CC(N(N)CC(=O)N2CSCC2C#N)CC(C)(C)C1` (stereo not shown) [Compound No. 79, 3-[1-Oxo-2-(1-(3,3,5-trimethylcyclohexyl)-hydrazino)]ethyl-4-cyanothiazolidine trifluoroacetate]: the IC50 was determined as 0.92 ± 0.03 µM. On to `N#CC1CSCN1C(=O)CN(N)C1CCN(S(=O)(=O)c2ccc(Cl)cc2)CC1` (stereo not shown) [Compound No. 62, 3-[1-Oxo-2-[1-(1-(4-chlorophenylsulphonyl)-piperidin-4-yl)]hydrazino]ethyl-4-cyanothiazolidine trifluoroacetate], for which the IC50 worked out at 1.54 ± 0.34 µM. The same measure, in the same setting: the figure for `CC(=O)NN(CC(=O)N1CSCC1C#N)C1CCC(C)CC1` (stereo not shown) [Compound No. 74, 3-[1-Oxo-2-(1-(4-methylcyclohexyl)-2-acetyl) hydrazino]ethyl-4-cyanothiazolidine] is 97.7 ± 13.1 µM; for `CCOC(=O)Cc1csc(NC(=O)CN2CCC(N(N)CC(=O)N3CSCC3C#N)CC2)n1` (stereo not shown) [compound 129, 3-[1-oxo-2-(1-(1-(2-oxo-2-(4-ethoxycarbonylmethylthiazole-2-yl)aminoethyl)piperidine-4-yl)) hydrazino]ethyl-4-cyanothiazolidine, tris-trifluoroacetate] it is 0.362 ± 0.06 µM. The same measure, in the same setting: the figure for `CC(=O)N1CCC(N(N)CC(=O)N2CSCC2C#N)CC1` (stereo not shown) [Compound No. 66, 3-[1-Oxo-2-(1-(1-acetyl)-piperidin-4-yl)hydrazino]ethyl-4-cyanothiazolidine trifluoroacetate] is 1.53 ± 0.01 µM; for `N#CC1CSCN1C(=O)CN(N)C1CCN(CC(=O)Nc2ccccn2)CC1` (stereo not shown) [compound 136, 3-[1-oxo-2-(1-(1-(2-oxo-2-(pyridin-2-yl)aminoethyl)piperidine-4-yl))hydrazino]ethyl-4-cyanothiazolidine, tris-trifluoroacetate] it is 0.21 ± 0.004 µM.

Staying with this assay, now noted: Porcine DPP-IV, Gly-Pro-pNA substrate, 30° C.; mean ± SD of three experiments except compound Nos. 133 & 139; trihydrochloride; read-out: IC50 (μM) Mean ± SD, inhibitory activity on DPP-IV enzyme activity.
As for `N#CC1CSCN1C(=O)CN(N)C1CCN(CC(=O)Nc2nc3ccccc3s2)CC1` (stereo not shown) [compound 144, 3-[1-oxo-2-(1-(1-(2-oxo-2-(benzothiazole-2-yl)aminoethyl)piperidine-4-yl)) hydrazine]ethyl-4-cyanothiazolidine, trihydrochloride], the concentration for half-maximal inhibition (IC50) was determined as 0.167 ± 0.007 µM.

Usually IC50 stands for the concentration that gives 50% inhibition.

These data come from patent publication US20040106802A1, “Novel compounds and therapeutic uses thereof” (TORRENT PHARMACEUTICALS LTD., priority 2002, published 2004).
